Converted amounts (≈) assume the structure as drawn. Where two headings read alike, the source gives them in different places.
Experiment: Solubility data of acadesine in injectable solution
Type: physicochemical

- solubility (5° C., injectable solution pH 6.0-8.0 (with antioxidant), read-out: solubility data supports): 18 mg/mL (≈ 69.7 mM)
- solubility (5° C., injectable solution pH 7.2-8.0, read-out: solubility data supports): 18 mg/mL (≈ 69.7 mM)
- solubility (5° C., injectable solution pH range 8.8-9.6, read-out: Available solubility data supports up to): ≤ 21.5 mg/mL
- solubility (5 °C, injectable solution pH 8.8-9.6, read-out: solubility data supports): 18 mg/mL (≈ 69.7 mM)
- solubility (Room temperature, injectable solution pH 6.0-8.0 (with antioxidant), read-out: solubility data supports): 60 mg/mL (≈ 232 mM)
- solubility (Room temperature, injectable solution pH 7.2-8.0, read-out: solubility data supports): 60 mg/mL (≈ 232 mM)
- solubility (Room temperature, injectable solution pH 8.8-9.6, read-out: solubility data supports): 60 mg/mL (≈ 232 mM)
Structure (SMILES): NC(=O)c1ncn([C@@H]2O[C@H](CO)[C@@H](O)[C@H]2O)c1N [Acadesine, 5-aminoimidazole-4-carboxamide (AICA) riboside]

From patent US20120258926A1, “FORMULATIONS OF ACADESINE” (priority 2009, published 2012)
